{
  "source": "patent US20090010873A1",
  "about": "“Methods of Cell Therapy, Neurogenesis and Oligodendrogenesis” (YEDA RESEARCH AND DEVELOPMENT CO. LTD., priority 2004, published 2009)",
  "key": {"[1]": {"test_system": "neural progenitor cells (NPCs)", "assay": "NPCs co-cultured with microglia pre-activated by aggregated Aβ and cytokines (β-III-tubulin)", "assay_type": "cell-based, mouse", "details": "10 days co-culture; Aβ 5 μM, IFN-γ 10 ng/ml", "method": "(xlvi) Reagents. Recombinant mouse IFN-γ and IL-4 (both containing endotoxin at a concentration below 0.1 ng/μg cytokine) were obtained from R&D Systems (Minneapolis, Minn.). β-amyloid peptides [amyloid protein fragment 1-40 and 1-42 (Aβ1-40/1-42)] were purchased from Sigma-Aldrich, St. Louis, Mo. The Aβ peptides were dissolved in endotoxin-free water, and Aβ aggregates were formed by incubation of Aβ, as described (Ishii et al., 2000).\n(li) Neural progenitor cell culture. Coronal sections (2 mm thick) of tissue containing the subventricular zone of the lateral ventricle were obtained from the brains of adult C57B1/6J mice. The tissue was minced and then incubated for digestion at 37° C., 5% CO2 for 45 min in Earle's balanced salt solution containing 0.94 mg/ml papain (Worthington, Lakewood, N.J.) and 0.18 mg/ml of L-cysteine and EDTA. After centrifugation at 110×g for 15 min at room temperature, the tissue was mechanically dissociated by pipette trituration. Cells obtained from single-cell suspensions were plated (3500 cells/cm^2) in 75-cm^2 Falcon tissue-culture flasks (BD Biosciences, San Diego, Calif.), in NPC-culturing medium [Dulbecco's modified Eagles's medium (DMEM)/F12 medium (Gibco/Invitrogen, Carlsbad, Calif.) containing 2 mM L-glutamine, 0.6% glucose, 9.6 μg/ml putrescine, 6.3 ng/ml progesterone, 5.2 ng/ml sodium selenite, 0.02 mg/ml insulin, 0.1 mg/ml transferrin, 2 μg/ml heparin (all from Sigma-Aldrich, Rehovot, Israel), fibroblast growth factor-2 (human recombinant, 20 ng/ml), and epidermal growth factor (human recombinant, 20 ng/ml; both from Peprotech, Rocky Hill, N.J.)]. Spheres were passaged every 4-6 days and replated as single cells. Green fluorescent protein (GFP)-expressing NPCs were obtained as previously described (Pluchino et al., 2003).\n(lii) Primary microglial culture. Brains from neonatal (P0-P1) C57B1/6J mice were stripped of their meninges and minced with scissors under a dissecting microscope (Zeiss, Stemi DV4, Germany) in Leibovitz-15 medium (Biological Industries, Kibbutz Beit Ha-Emek, Israel). […]"}, "microglia": {"test_system": "microglia", "assay": "TNF-α and IGF-I expression in treated microglia (RT-PCR, Q-PCR, immunocytochemistry)", "assay_type": "cell-based, mouse", "method": "(v) RNA purification, cDNA synthesis, and reverse-transcription PCR analysis. Cells were lysed with TRI reagent (MRC, Cincinnati, Ohio), and total cellular RNA was purified from lysates using the RNeasy kit (Qiagen, Hilden, Germany) according to the manufacturer's instructions. Residual genomic DNA was removed during the purification process by incubation with RNase-free DNase (Qiagen). RNA was stored in RNase-free water (Qiagen) at −80° C. RNA (1 μg) was converted to cDNA using SuperScript II ([…], Madison, Wis.), as recommended by the manufacturer. The cDNA mixture was diluted 1:5 with PCR-grade water.\nWe assayed the expression of specific mRNAs using semi-quantitative reverse transcription PCR(RT-PCR) with selected gene-specific primer pairs, using OLIGO v6.4 (Molecular Biology Insights, Cascade, Colo.).\nThe RT-PCR reactions were carried out using 1 μg of cDNA, […] of each primer, and ReadyMix PCR Master Mix (ABgene, Epsom, UK) in 30-μl reactions. PCR reactions were carried out in an Eppendorf PCR system with cycles (usually 25-30) of 95° C. for 30 s, 60° C. for 1 min, 72° C. for 1 min, and 72° C. for 5 min, and then kept at 4° C. As an internal standard for the amount of cDNA synthesized, we used β-actin mRNA. PCR products were subjected to agarose gel analysis and visualized by ethidium bromide staining. Signals were quantified using a Gel-Pro analyzer 3.1 (Media Cybernetics).\n(xxiv) Real-time quantitative PCR analysis. Total cellular RNA purification and cDNA synthesis was performed as described in section (v) of Example 1 above. We assayed the expression of specific mRNAs using real-time quantitative PCR (Q-PCR) with selected gene-specific primer pairs. Q-PCR reactions were performed with a high-speed thermal cycler (LightCycler; Roche Diagnostics), and the product was detected by FastStart Master SYBR Green I (Roche Molecular Biochemicals) according to the manufacturer's instructions. The amplification cycle was 95° C. for 10 s, 60° C. for 5 s, and 72° C. for 10 s. The primers used were: […]"}},
  "data": [
    {"substance": "IFN-γ", "values": [
      {"measurement": "GFP^+/βIIIT^+ cells (neurogenesis) with microglia activated by the agent", "setting": "[1]", "result": "dramatic"},
      {"measurement": "expression of IGF-I in microglia (Q-PCR)", "setting": "microglia; 10 ng/ml, 24 h", "result": "no effect"},
      {"measurement": "expression of IGF-I in microglia (Q-PCR)", "setting": "microglia; 100 ng/ml, 24 h", "result": "completely arrested"},
      {"measurement": "IGF-I production/expression by microglia", "setting": "microglia; RT-PCR time course and immunocytochemistry, IL-4 10 ng/ml, IFN-γ 20 ng/ml, LPS 100 ng/ml", "result": "down-regulation of IGF-I"},
      {"measurement": "TNF-α production by microglia", "setting": "microglia; RT-PCR time course, IFN-γ 20 ng/ml", "result": "transient increase"},
      {"measurement": "TNF-α production in microglia (Q-PCR)", "setting": "microglia; high-dose IFN-γ (100 ng/ml), 24 h", "result": "induced"}
    ]}
  ]
}
